Columns and labels:
[1] = system: Eμ-Myc;p19Arf−/− lymphoma cells; conditions: for single drug cell death: single drug concentration used in the 17AAG-CBL combination
[2] = system: Eμ-Myc;p19Arf−/− lymphoma cells; test: 8-shRNA signature (GFP competition) with probabilistic nearest neighbors and PCA analysis; type: cell-based, mouse; conditions: shDNAPKcs, LD80-90

| Structure (SMILES) | single drug cell death [1] | effect of diminution of DNAPKcs levels on drug response [2] | effect on 5-FU action [1] | cell death ([1]; leucovorin alone at 1 μM, lymphoma cells) |
| --- | --- | --- | --- | --- |
| C=CCNC1=C2C[C@@H](C)C[C@H](OC)[C@H](O)[C@@H](C)/C=C(\C)[C@H](OC(N)=O)[C@@H](OC)/C=C\C=C(/C)C(=O)NC(=CC1=O)C2=O [17AAG] | ~20% |  |  |  |
| O=C(O)CCCc1ccc(N(CCCl)CCCl)cc1 [CBL, Chlorambucil] | ~20% | resistance |  |  |
| COc1cccc2c1C(=O)c1c(O)c3c(c(O)c1C2=O)C[C@@](O)(C(=O)CO)C[C@@H]3O[C@H]1C[C@H](N)[C@H](O)[C@H](C)O1 [Dox, doxorubicin] |  | sensitivity |  |  |
| Nc1nc2c(c(=O)[nH]1)N(C=O)C(CNc1ccc(C(=O)N[C@@H](CCC(=O)O)C(=O)O)cc1)CN2 (stereo partly drawn) [leucovorin] |  |  | potentiated 5-FU action | no cell death |

— US9670486B2, “RNAi-based method of screening and characterizing drug combinations” (Massachusetts Institute of Technology, priority 2011, dated 2017)
